Experimental data published in BindingDB's records for doi:10.1021/acsmedchemlett.8b00406 (China Agricultural University, 2018).

Biological target: beta-hexosaminidase HsHex (Homo sapiens)
Test: Inhibition of human beta-N-acetylhexosaminidase using p-nitrophenyl glycoside as substrate by spectrometric method

- Ki: 3.2 µM
SMILES: O=C1c2cccc3cccc(c23)C(=O)N1CCNCCN1C(=O)c2cccc3cccc(c23)C1=O
